Assays:
5×FAD mice [1] = assay: Morris water maze test; conditions: MK0677 1.5 mg/kg, daily i.p., one month
Method: Mice and agonist treatment. […] Mice were used in pairs of age-matched non-transgenic mice (non-TG). Genotypes of animals were confirmed using PCR and/or amyloid plaque staining. The number of mice used was determined by previous data and calculations to ensure that the minimal number of mice as required was used in these experiments. […] Mouse body weight was recorded every five days until euthanasia. After the 1-month treatment, the mice were subjected to the Morris water maze behavioral test and then euthanized for tissue collection following IACUC-approved procedures.
Mouse behavioral test. The Morris water maze test was performed as previously described in order to test changes in mouse spatial learning and memory [3, 50]. Mice were randomly grouped by gender, genotypes and treatments (which the experimenter was blind to) and then transferred to the testing environment at least 0.5 hours before tests. During the test, mice were trained to find a hidden platform (20 cm diameter) in an open swimming pool (200 cm diameter) filled with 21° C. water (non-toxic white dye was used to hide the platform). Four trials were performed each day for 12 days. Each trial started at a different position (NW, N, E, SE) while the platform was kept in the same location (SW). […] Probe results were analyzed using the platform location crossed frequency value.

[2] = system: hippocampal CA3-CA1 pathway; assay: Long-term potentiation (fEPSP) in hippocampal slices; conditions: MK0677 1.5 μM, SKF81297 2 μM, alone or in combination
Method: For electrophysiological experiments, mice were anesthetized with isoflurane and decapitated. […] Slices were allowed to rest for 30 minutes after being transferred to the recording chamber before recordings began. Recordings of local field potentials (LFPs) were performed on an Axon Multiclamp 700B amplifier (Molecular Devices), and data were acquired and analyzed using AxoGraph X (AxoGraph Scientific). A tungsten concentric bipolar microelectrode (World Precision Instruments), and a recording glass electrode (1.5 MS2) filled with recording ACSF, were placed approximately 200 μm apart in the Schaffer collateral-commissural pathway in the CA1 region of the hippocampus. Pulses were delivered in 30 seconds intervals. Before baseline recordings commenced, input-output curves were taken, using 25-150 μA stimulation currents in 25 μA steps. Three sweeps were sampled at each stimulation intensity and averaged to represent the voltage response at each step. Recordings of baseline responses lasted for at least 40 minutes. Stimulation intensity was set to approximately 40% of the minimum intensity required to evoke the maximum response (based on the input-output curve). The stimulation intensity was kept consistent throughout the duration of the experiment. […] LTP was induced using a theta burst stimulation (TBS) protocol consisting of 10 bursts (5 pulses at 100 Hz) repeated at 5 Hz delivered two times 30 seconds apart. After LTP induction, LFPs were recorded for an additional 60 minutes. The slope of the field excitatory postsynaptic potential (fEPSP) was measured in Axograph scientific software and sweeps were averaged in bins of 5 for both the baseline and post LTP induction periods. Changes in LFPs are expressed as percentage change from the averaged baseline values.

5×FAD mice [3] = assay: Microglia density, morphology and plaque-associated microglia analysis; assay type: in vivo, mouse
Method: Immunocytochemistry. Frozen sections were prepared as previously described. […] Nuclei were labeled with 4′,6-diamidino-2-phenylindole (DAPI, Thermo Fisher Scientific, #R37606, 1 drop/500 ul) as needed. Images were collected on a Nikon confocal microscope. Microglia morphology and plaque-associated microglia density analysis. Analysis of microglia morphology was done by producing three-dimensional (3D) reconstructions of cells using Imaris software (Bitplane, Imaris×64 9.0.2)[49]. Using the Filament algorithm, the software was able to calculate the length of each cell dendrite and number of branch points. This was done by first selecting the appropriate region of interest for the desired cell. If there were nearby cells, the somas of those cells were included in the region of interest. Since the software builds the dendrites based on extension from the largest set diameter, doing this can prevent unwanted filaments bridging the dendrites of two or more cells. The dendrite diameter parameters were set with the largest diameter being the soma size and the smallest diameter at 0.5 μm. To further prevent unwanted connections, the option to ‘Remove disconnected segments’ was used in the dendrite building menu with the distance threshold set at 5 μm. After the algorithm finished detecting the dendrites, non-specifically detected filaments were manually trimmed. Dendrite length and branch points were then calculated by the software. Plaque-associated microglia density was analyzed by using NIS element software. Microglia were counted under the following rule: if more than 50% of the microglia soma was within a plaque, it was counted as one plaque-associated microglia. Plaque volume was analyzed as described in the previous section (amyloid plaque deposition analysis).

Ghsr1α [4] = molecular target: T1, Ghsr1α (Mus musculus, UniProt Q99P50, INS247CCPGCC); assay: FlAsH-based FRET assay of Ghsr1α activity in HEK 293T cells; assay type: cell-based; conditions: 50 μM; Ghsr1α FlAsH/ECFP-expressing HEK 293T cells
T1 construct: Mouse full length Ghsr1α cDNA (NCBI Gene ID: 208188) was purchased from OriGene (MR226073); expressed in transfected cells; host or cells: HEK 293T
T1 sequence (Q99P50 with tags, fused parts or gaps INS247CCPGCC): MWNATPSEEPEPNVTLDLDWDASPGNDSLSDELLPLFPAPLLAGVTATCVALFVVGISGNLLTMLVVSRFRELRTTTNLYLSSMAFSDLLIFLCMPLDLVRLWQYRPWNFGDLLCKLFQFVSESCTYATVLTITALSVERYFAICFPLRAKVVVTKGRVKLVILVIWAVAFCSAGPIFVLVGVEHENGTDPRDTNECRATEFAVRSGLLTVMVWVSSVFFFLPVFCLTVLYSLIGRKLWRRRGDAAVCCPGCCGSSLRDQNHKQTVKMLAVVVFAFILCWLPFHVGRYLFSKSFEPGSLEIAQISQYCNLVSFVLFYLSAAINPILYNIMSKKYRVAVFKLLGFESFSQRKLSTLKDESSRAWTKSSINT
Description: FlAsH-based FRET was created by structural dynamics of Ghsr1α with FlAsH in the intercellular loop 3 and enhanced cyan fluorescent protein (ECFP) in the C-terminus (Ghsr1α^FlAsH/ECFP).
FlAsH-based FRET. […] The CCPGCC motif which has higher binding affinity for FlAsH was inserted in the third intracellular loop between Va1247 and Gly248 of Ghsr1α cDNA or between Thr245 and Gly246 of Drd1 cDNA. […] Fluorescence signals were monitored on microplate reader (BioTek Cytation 5) before and after the treatments. […] Area scanning read mode was used to correct artificial inaccuracies. The FRET ratio (FFlAsH/FECFP) was calculated according to equation as previously reported (69):
The terms a and b are correction factors for the two leakages mentioned above. a is the ratio of the direct emission of donor, ECFP at 535 nm, to its emission at 475 nm when excited at 425 nm which was calculated with cells transfected with pcDNA3-Ghsr1α^FlAsH/ECFP or pcDNA3-Drd1^FlAsH/ECFP only. b is the ratio of the direct emission of FlAsH at 535 nm when excited at 425 nm to its emission at 535 nm when excited at 500 nm which was calculated with FlAsH labeled untransfected cells.

Ghsr1α [5] = molecular target: Ghsr1α (Homo sapiens, UniProt Q92847); conditions: cited from earlier work
Chain of Ghsr1α (Homo sapiens, UniProt Q92847) (Q92847 whole entry): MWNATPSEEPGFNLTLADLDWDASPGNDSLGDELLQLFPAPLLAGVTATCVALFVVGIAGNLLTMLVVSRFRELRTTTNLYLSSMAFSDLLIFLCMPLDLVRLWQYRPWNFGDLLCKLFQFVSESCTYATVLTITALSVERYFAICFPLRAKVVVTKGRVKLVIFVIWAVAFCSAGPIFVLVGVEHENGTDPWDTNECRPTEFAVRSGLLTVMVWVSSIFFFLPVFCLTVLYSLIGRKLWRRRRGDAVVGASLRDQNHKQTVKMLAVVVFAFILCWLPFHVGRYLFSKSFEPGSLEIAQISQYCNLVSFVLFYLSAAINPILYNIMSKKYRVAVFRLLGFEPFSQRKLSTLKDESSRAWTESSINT

5×FAD mice [6] = assay: Amyloid plaque deposition analysis (hippocampus and cortex); assay type: in vivo, mouse
Method: Immunocytochemistry. Frozen sections were prepared as previously described. […] Nuclei were labeled with 4′,6-diamidino-2-phenylindole (DAPI, Thermo Fisher Scientific, #R37606, 1 drop/500 ul) as needed. Images were collected on a Nikon confocal microscope. Amyloid plaque deposition analysis. For amyloid plaque deposition analysis, amyloid plaque channel was subjected to “Binary” then “Define Threshold” in NIS element software. The threshold was set to include all the positive staining and the same setting was applied to all images. Volume measurement was then performed for all the plaques as well as each single plaque in both the hippocampal and cortical areas using the ROI selection option. Amyloid plaque-occupied percentage in the hippocampus or cortex and the average individual plaque volume was used to compare amyloid plaque deposition between 5×FAD saline and MK0677 treatment groups.

5×FAD mice [7] = assay: Neurogenesis (DCX staining) in the dentate gyrus; assay type: in vivo, mouse; conditions: MK0677 1.5 mg/kg, daily i.p., one month
Method: (§1) Immunocytochemistry. […] NIS element software was used for image analysis. “Objective Count” dialog was used for intensity measurement. […] The overlapped dots represent synapses.
Neurogenesis analysis. Neurogenesis in the hippocampal dentate gyms (DG) area was presented by performing doublecortin (DCX) staining in fixed brain slices as previously described. DCX-positive (DCX^+) cell number was counted manually. The DG area was measured using NIS element software. DCX cell density was calculated by dividing the DCX cell number by the DG area to evaluate neurogenesis.

patients with AD = conditions: clinical trial; cited from earlier work
5×FAD mice [8] = assay: Synaptic density in hippocampal CA1 region of treated mice; assay type: in vivo, mouse; conditions: MK0677 1.5 mg/kg, daily i.p., one month
Method: as §1
Synaptic density analysis. For synaptic density analysis, vesicular glutamate transporter 1(vGlutl)- and postsynaptic density 95 (PSD95)-stained channels were saved as two binary layers, the threshold for each channel defined separately and then applied to all the images. The overlapping areas were analyzed by using the “AND” operation in the “Binary Operation” dialogs of NIS element software. Hippocampal volume was measured as described in the previous section (amyloid plaque deposition analysis). The overlapping dots represent synapses and average synapse number per selected area volume was calculated to represent synaptic density.

hippocampal neurons = assay: Synaptic density (vGLUT1/PSD95) in cultured hippocampal neurons; assay type: cell-based, mouse
Method: as §1
Primary hippocampal neuron culture. Hippocampal neuron cultures were prepared as previously described (15). In brief, mouse hippocampi were dissected from postnatal day 0-1 pups in cold HBSS. Cells were dissociated by using 0.025% trypsin at 37° C. for 15 minutes, followed by 10 times homogenization in ice cold DMEM. Dissociated cells were then passed through a 100 μm cell strainer (Corning) and centrifuged for 5 minutes at 210×g. The pellet was gently resuspended in neuron culture medium (Neurobasal A with 2% B27 supplement, 0.5 mM L-glutamine, Invitrogen) and plated on poly-D-lysine (Sigma-Aldrich) coated Lab-Tek chamber slides (Nunc, 177445) with appropriate densities.
Agonist treatment on primary cultured neurons. At 14 days in vitro (DIV14) hippocampal neurons were exposed to the synthetic growth hormone secretagogue receptor agonist MK0677 (Tocris, #5272, 1.5 μM) the dopamine D1-like receptor agonist SKF81297 (Sigma-Aldrich, #S143, 2 μM) or a mixture of MK0677 and SKF81297 for 5 minutes. The exposure was followed by immunostaining to examine the effects of Ghsr1α/Drd1 co-activation on Aβ induced synaptic loss or Ghsr1α/Drd1, Aβ/Ghsr1α interaction as described in previous sections.

[9] = MK0677 1.5 mg/kg, daily i.p., one month
[10] = saline- vs MK0677-treated 5×FAD mice

CC(C)(N)C(=O)N[C@H](COCc1ccccc1)C(=O)N1CCC2(CC1)CN(S(C)(=O)=O)c1ccccc12 [MK0677]
spatial reference learning and memory (genotypic cognitive impairment) (5×FAD mice [1]): failed to show any protective effect
stimulus-evoked hippocampal LTP in 5×FAD slices ([2]; slices from 4 month-old 5×FAD mice): no effect
hippocampal LTP in non-Tg slices ([2]; slices from 4 month-old non-Tg mice): no effect
increased microglial density in the hippocampus, 5×FAD mice (5×FAD mice [3]; [9]): not prevented
microglia density, non-TG saline vs MK0677 (5×FAD mice [3]; [9]): no significant difference
density of plaque-associated microglia, neocortex (5×FAD mice [3]; MK0677-treated 5×FAD mice): failed to show any influence
density of total microglia, neocortex (5×FAD mice [3]; MK0677-treated 5×FAD mice): failed to show any influence
density of plaque-associated microglia, hippocampus (5×FAD mice [3]; [10]): no significant difference
microglia length of total process (5×FAD mice [3]; [10]): no significant difference
microglia number of branch points (5×FAD mice [3]; [10]): no significant difference
FRET ratio (FFlAsH/FECFP), agonist-induced Ghsr1α activation (Ghsr1α [4]): induced a decrease in FRET ratio
potency relative to ghrelin (Ghsr1α [5]): higher potency than ghrelin
size of each single Aβ plaque, hippocampus (5×FAD mice [6]; 5×FAD mice, MK0677 1.5 mg/kg, daily i.p., 30 days): did not significantly alter
single plaque size, neocortex (5×FAD mice [6]; MK0677-treated 5×FAD mice): failed to show any influence
total plaque-occupied volume, neocortex (5×FAD mice [6]; MK0677-treated 5×FAD mice): failed to show any influence
DCX+ cells, non-TG saline vs non-TG MK0677 (5×FAD mice [7]): no significant difference
DCX-positive cells in dentate gyri, 5×FAD mice (5×FAD mice [7]): remarkably augmented number of DCX-positive cells
DCX-positive cells, Ghsr null mice (5×FAD mice [7]): no response
clinical benefits in patients with AD (patients with AD): failed to show clinical benefits
synaptic density, non-TG saline vs MK0677 (5×FAD mice [8]): no significant difference
synaptic loss in CA1 region, 5×FAD mice (5×FAD mice [8]): not significantly attenuated
synaptic density / oligomeric Aβ42-induced synapse loss (hippocampal neurons; oligomeric Aβ42 1 μM, 24 hours, 1.5 μM MK0677, 2 μM SKF81297, or in combination): did not mitigate
synaptic density, agonist alone (hippocampal neurons; without oligomeric Aβ42, MK0677 at doses greater than 1.5 μM, SKF81297 2 μM): substantially promoted synaptic formation

— patent US20220370471A1, “COMPOSITION AND METHOD FOR TREATMENT OF HIPPOCAMPAL SYNAPSE DYSFUNCTION AND COGNITIVE DEFICITS IN ALZHEIMER'S DISEASE” (BOARD OF REGENTS, THE UNIVERSITY OF TEXAS SYSTEM, priority 2019, published 2022)
